Holding throughout (type): cell-based
One data set has as its system PC3 (prostatic cancer). Description: MTT assay, PC3. The note with it: Homo sapiens, 48 h, MTT, read-out: (%) Mortality of PC3; for cytotoxicity at 100 µg/mL: at 100 μg ml^−1, 48 hours. On the procedure:
(§1) The percentage of the cell viability treated with the newly synthesized compounds was evaluated using MTT assay (3-(4,5-dimethylthiazol-2-yl)-2,5-diphenyl tetrazolium bromide). All the subsequent steps were done in a sterile Laminar flow class II biosafety cabinet (Baker, SG406INT, Sanford, ME, USA). DMEM was used as a suspension medium for breast cancer (MCF7), prostate cancer (PC3), and pancreatic cancer (PACA2), while normal cell line (BJ1) was suspended in DMEM-F12 medium, a 1% antibiotic-antimycotic mixture (10 000 U ml^−1 potassium penicillin, 10 000 μg ml^−1 streptomycin sulfate, and 25 μg ml^−1 amphotericin B), and 1% L-glutamine at 37 °C under 5% CO2.
(§2) Cells were cultured for 10 days and then seeded at a concentration of 10 × 10^4 cells per well in fresh complete growth medium in 96-well microtiter plastic plates at 37 °C for 24 hours under 5% CO2 using a water-jacketed carbon dioxide incubator (Sheldon, TC2323). Media were aspirated, serum-free fresh medium was added, and cells were incubated either alone (negative control) or with different concentrations of the synthesized chalcone derivatives to a final concentration of (100–50–25–12.5–6.25–3.125–0.78 and 1.56 μg ml^−1). After incubation for 48 hours, the medium was aspirated and 40 μl of MTT salt ([…]) was added to each well and incubated for another four hours at 37 °C under 5% CO2. To stop the reaction and dissolve the formed crystals, 200 μl of 10% sodium dodecyl sulfate (SDS) in deionized water was added to each well and incubated overnight at 37 °C.
(§3) The absorbance was then measured at 595 nm and a reference wavelength of 620 nm using a microplate multi-well reader (Bio-Rad Laboratories Inc., model 3350). Statistical significance was tested between the samples and the negative control (cells with vehicle) using an independent t-test using the SPSS 11 program. DMSO was the vehicle used for the dissolution of the synthesized chalcones, and its final concentration on the cells was less than 0.2%. The percentage of change in viability was calculated according to the formula: ((reading of extract/reading of negative control) − 1) × 100. A Probit analysis was carried out for the determination of IC50 using the SPSS 11 program.
(Tetrazolium dyes change colour on reduction, which living cells bring about.)

In data set [1] the test system is PACA2 (pancreatic carcinoma). Description: MTT assay, PACA2. The note with it: Homo sapiens, PaCa-2, 48 h, MTT, read-out: (%) Mortality of PACA2; for cytotoxicity at 100 µg/mL: at 100 μg ml^−1, 48 hours. On the procedure:
as §1, §2, §3

Data set [2] deals with MCF7 (human breast adenocarcinoma). Description: MTT assay, MCF7. The note with it: Homo sapiens, MTT; for cytotoxicity at 100 µg/mL: at 100 μg ml^−1, 48 hours. On the procedure:
as §1, §2, §3

In data set [3] the test system is BJ1 (normal skin fibroblasts). Description: MTT assay, normal cell line BJ1. The note with it: Skin fibroblast, 48 hours. On the procedure:
as §1, §2, §3

A short description of data set [4]: MTT assay, normal cell line BJ1. The note with it: human, BJ1 normal skin fibroblasts, at 100 μg ml^−1, 48 hours, read-out: (%) Mortality of BJ1. The protocol: as §1, §2, §3
Where [5] appears, read: MCF7, 48 h, read-out: (%) Mortality of MCF7.

This is an account of results in article PMC11232109, “Synthesis, anticancer evaluation of novel hybrid pyrazole-based chalcones, molecular docking, DNA fragmentation, and gene expression: in vitro studies” (RSC Advances, 2024).

Consider `Cc1c(C(=O)C=Cc2nn(-c3ccccc3)cc2-c2cccs2)c(-c2cccs2)nn1-c1ccc([N+](=O)[O-])cc1` [Compound 9f, 1-(5-Methyl-1-(4-nitrophenyl)-3-(thiophen-2-yl)-1H-pyrazol-4-yl)-3-(1-phenyl-4-(thiophen-2-yl)-1H-pyrazol-3-yl)prop-2-en-1-one], for which the cytotoxicity at 100 µg/mL with PC3 (prostatic cancer) turned out to be 4.5 ± 0.23%; in data set [1], 16.5 ± 0.35%; in data set [2] (setting [5]), 80.4 ± 0.25%.
For orientation: IC50 means the midpoint of a concentration-inhibition curve. A high value points to weaker potency in that assay. Regarding `Cc1c(C(=O)C=Cc2ccncc2)c(-c2cccs2)nn1-c1ccc([N+](=O)[O-])cc1` [Compound 7c, 1-(5-Methyl-1-(4-nitrophenyl)-3-(thiophen-2-yl)-1H-pyrazol-4-yl)-3-(pyridin-4-yl)prop-2-en-1-one], the cytotoxicity at 6.25 µg/mL with PC3 (prostatic cancer) (up to 6.25 μg ml^−1, 48 hours) came out at 100%; in data set [1] (up to 6.25 μg ml^−1, 48 hours), 100%; in data set [2] (MCF7, 48 h, up to 6.25 μg ml^−1, 48 hours, read-out: (%) Mortality of MCF7), 100%. Moreover, the IC50 in data set [3] was determined as 86.2 ± 0.22 µM. For the same molecule, the cytotoxicity at 48 h, 100 μg ml^−1 in data set [4] amounted to 52.3 ± 0.76%.
Regarding `Cc1c(C(=O)C=Cc2nn(-c3ccccc3)cc2-c2ccc(Cl)cc2)c(-c2cccs2)nn1-c1ccc([N+](=O)[O-])cc1` [Compound 9d, 3-(4-(4-Chlorophenyl)-1-phenyl-1H-pyrazol-3-yl)-1-(5-methyl-1-(4-nitrophenyl)-3-(thiophen-2-yl)-1H-pyrazol-4-yl)prop-2-en-1-one], the cytotoxicity at 100 µg/mL in the data set with PC3 (prostatic cancer) was found to be 3.5 ± 0.92%; in data set [1], 54.5 ± 0.84%; in data set [2] (setting [5]), 44.2 ± 0.33%.
Turning to `Cc1ccc(-c2cn(-c3ccccc3)nc2C=CC(=O)c2c(-c3cccs3)nn(-c3ccc([N+](=O)[O-])cc3)c2C)cc1` [Compound 9b, 1-(5-Methyl-1-(4-nitrophenyl)-3-(thiophen-2-yl)-1H-pyrazol-4-yl)-3-(1-phenyl-4-(p-tolyl)-1H-pyrazol-3-yl)prop-2-en-1-one], the cytotoxicity at 100 µg/mL was 27.2 ± 0.31% in the data set on PC3 (prostatic cancer), 39.5 ± 0.91% in data set [1] and 44.5 ± 0.74% in data set [2] (setting [5]).
As for `COc1ccc(-c2cn(-c3ccccc3)nc2C=CC(=O)c2c(-c3cccs3)nn(-c3ccc([N+](=O)[O-])cc3)c2C)cc1` [Compound 9c, 3-(4-(4-Methoxyphenyl)-1-phenyl-1H-pyrazol-3-yl)-1-(5-methyl-1-(4-nitrophenyl)-3-(thiophen-2-yl)-1H-pyrazol-4-yl)prop-2-en-1-one], the cytotoxicity at 100 µg/mL stood at 2.9 ± 0.57% in the data set on PC3 (prostatic cancer), 19.8 ± 0.68% in data set [1] and 25.2 ± 0.41% in data set [2] (setting [5]).
The corresponding values for `Cc1c(C(=O)C=Cc2cccs2)c(-c2cccs2)nn1-c1ccc([N+](=O)[O-])cc1` [Compound 7b, 1-(5-Methyl-1-(4-nitrophenyl)-3-(thiophen-2-yl)-1H-pyrazol-4-yl)-3-(thiophen-2-yl)prop-2-en-1-one] are 4.2 ± 0.73%, 32.5 ± 0.74% and 45.3 ± 0.98%.
As for `Cc1c(C(=O)C=Cc2ccco2)c(-c2cccs2)nn1-c1ccc([N+](=O)[O-])cc1` [Compound 7a, 3-(Furan-2-yl)-1-(5-methyl-1-(4-nitrophenyl)-3-(thiophen-2-yl)-1H-pyrazol-4-yl)prop-2-en-1-one], the results for the cytotoxicity at 100 µg/mL (with PC3 (prostatic cancer); in data set [1]; in data set [2] (setting [5])) were 3.8 ± 0.65%, 17.3 ± 0.13% and 63.5 ± 0.11%, respectively. Besides, the cytotoxicity at 48 h, 100 μg ml^−1 in data set [4] was 11.2 ± 0.48%. This molecule also registered an IC50 in data set [2] (MCF7, 48 hours) of 72.3 ± 0.34 µM.
As for `Cc1c(C(=O)C=Cc2nn(-c3ccccc3)cc2-c2ccccc2)c(-c2cccs2)nn1-c1ccc([N+](=O)[O-])cc1` [Compound 9a, 3-(1,4-Diphenyl-1H-pyrazol-3-yl)-1-(5-methyl-1-(4-nitrophenyl)-3-(thiophen-2-yl)-1H-pyrazol-4-yl)prop-2-en-1-one], the cytotoxicity at 100 µg/mL in the data set on PC3 (prostatic cancer) is 4.5 ± 0.26%; in data set [1], 50.3 ± 0.42%; in data set [2] (setting [5]), 42.3 ± 0.21%.
